Source: the NIST ThermoML archive (doi:10.1016/j.fluid.2010.12.012)

Test: wn = mass fraction of the nth substance listed
Conditions: 294.9 K, Liquid; for viscosity: Cone and plate viscometry; for mass density: Vibrating tube method

CC [ethane] + CO
Conditions | mass density [kg/m3] | viscosity [mPa·s]
1196 kPa, w1 = 0.056 | 750 | 0.54
2123 kPa, w1 = 0.12 | 720 | 0.43
3130 kPa, w1 = 0.225 | 671 | 0.32
